Measurements as given in ChEMBL document CHEMBL5634158, “From garden to lab: C-3 chemical modifications of tomatidine unveil broad-spectrum ATP synthase inhibitors to combat bacterial resistance” (Eur J Med Chem, 2023).

Experiments:
Type in all cases: functional
Escherichia coli = assay: Antibacterial activity against Escherichia coli ATCC 25922 assessed as reduction in microbial growth incubated for 20 hrs under aerobic condition by CLSI based broth microdilution method
Staphylococcus aureus [1] = assay: Antibacterial activity against Staphylococcus aureus ATCC 29213 assessed as reduction in microbial growth incubated for 20 hrs under aerobic condition by CLSI based broth microdilution method
Staphylococcus aureus [2] = assay: Antibacterial activity against Staphylococcus aureus ATCC 29213 hemB SCV assessed as reduction in microbial growth incubated for 20 hrs under aerobic condition by CLSI based broth microdilution method

Row | SMILES | MIC (Escherichia coli) [µg/mL] | MIC (Staphylococcus aureus [1]) [µg/mL] | MIC (Staphylococcus aureus [2]) [µg/mL]
1 | C[C@H]1CC[C@]2(NC1)O[C@H]1C[C@H]3[C@@H]4CC[C@H]5CC(NC[C@H](N)Cc6ccccc6)CC[C@]5(C)[C@H]4CC[C@]3(C)[C@H]1[C@@H]2C (mixture of isomers) | 32 | 4 | –
2 | C[C@H]1CC[C@]2(NC1)O[C@H]1C[C@H]3[C@@H]4CC[C@H]5CC(NCCN6CCNC6=O)CC[C@]5(C)[C@H]4CC[C@]3(C)[C@H]1[C@@H]2C (mixture of isomers) | > 128 | 64 | –
3 | C[C@H]1CC[C@]2(NC1)O[C@H]1C[C@H]3[C@@H]4CC[C@H]5CC(N[C@H]6CCCC[C@@H]6N)CC[C@]5(C)[C@H]4CC[C@]3(C)[C@H]1[C@@H]2C (mixture of isomers) | > 128 | 8 | –
4 | C[C@H]1CC[C@]2(NC1)O[C@H]1C[C@H]3[C@@H]4CC[C@H]5CC(NCc6cn(C)cn6)CC[C@]5(C)[C@H]4CC[C@]3(C)[C@H]1[C@@H]2C (mixture of isomers) | > 128 | 32 | –
5 | C[C@H]1CC[C@]2(NC1)O[C@H]1C[C@H]3[C@@H]4CC[C@H]5CC(NC[C@@H](N)Cc6ccc([N+](=O)[O-])cc6)CC[C@]5(C)[C@H]4CC[C@]3(C)[C@H]1[C@@H]2C (mixture of isomers) | 64 | 2 | –
6 | C[C@H]1CC[C@]2(NC1)O[C@H]1C[C@H]3[C@@H]4CC[C@H]5CC(NCCN(C)C)CC[C@]5(C)[C@H]4CC[C@]3(C)[C@H]1[C@@H]2C (mixture of isomers) | 128 | 8 | –
7 | C[C@H]1CC[C@]2(NC1)O[C@H]1C[C@H]3[C@@H]4CC[C@H]5CC(NCc6ccccn6)CC[C@]5(C)[C@H]4CC[C@]3(C)[C@H]1[C@@H]2C (mixture of isomers) | > 128 | > 128 | –
8 | C[C@H]1CC[C@]2(NC1)O[C@H]1C[C@H]3[C@@H]4CC[C@H]5CC(NC[C@@H](N)Cc6cn(C)c7ccccc67)CC[C@]5(C)[C@H]4CC[C@]3(C)[C@H]1[C@@H]2C (mixture of isomers) | 8 | 2 | –
9 | C[C@H]1CC[C@]2(NC1)O[C@H]1C[C@H]3[C@@H]4CC[C@H]5CC(NC[C@@H](C)N)CC[C@]5(C)[C@H]4CC[C@]3(C)[C@H]1[C@@H]2C (mixture of isomers) | 64 | 4 | –
10 | CCCC(N)(CCC)CNC1CC[C@@]2(C)[C@@H](CC[C@@H]3[C@@H]2CC[C@]2(C)[C@@H]4[C@H](C[C@@H]32)O[C@@]2(CC[C@H](C)CN2)[C@H]4C)C1 (mixture of isomers) | > 128 | 8 | –
11 | C[C@H]1CC[C@]2(NC1)O[C@H]1C[C@H]3[C@@H]4CC[C@H]5CC(NC[C@@H](N)Cc6cccc(Br)c6)CC[C@]5(C)[C@H]4CC[C@]3(C)[C@H]1[C@@H]2C (mixture of isomers) | 8 | 2 | –
12 | C[C@H]1CC[C@]2(NC1)O[C@H]1C[C@H]3[C@@H]4CC[C@H]5CC(NC[C@@H](O)CO)CC[C@]5(C)[C@H]4CC[C@]3(C)[C@H]1[C@@H]2C (mixture of isomers) | > 128 | 64 | –
13 | C[C@H]1CC[C@]2(NC1)O[C@H]1C[C@H]3[C@@H]4CC[C@H]5CC(NCCNC(=N)N)CC[C@]5(C)[C@H]4CC[C@]3(C)[C@H]1[C@@H]2C (mixture of isomers) | 64 | 8 | –
14 | C[C@H]1CC[C@]2(NC1)O[C@H]1C[C@H]3[C@@H]4CC[C@H]5CC(NC[C@@H](N)Cc6ccccc6Br)CC[C@]5(C)[C@H]4CC[C@]3(C)[C@H]1[C@@H]2C (mixture of isomers) | 32 | 4 | –
15 | C[C@H]1CC[C@]2(NC1)O[C@H]1C[C@H]3[C@@H]4CC[C@H]5CC(NCCO)CC[C@]5(C)[C@H]4CC[C@]3(C)[C@H]1[C@@H]2C (mixture of isomers) | > 128 | > 128 | –

Continued, values first:

Row | MIC (Escherichia coli) [µg/mL] | MIC (Staphylococcus aureus [1]) [µg/mL] | MIC (Staphylococcus aureus [2]) [µg/mL] | SMILES
16 | 16 | 4 | – | C[C@H]1CC[C@]2(NC1)O[C@H]1C[C@H]3[C@@H]4CC[C@H]5CC(NC[C@@H](N)CC6CCCCC6)CC[C@]5(C)[C@H]4CC[C@]3(C)[C@H]1[C@@H]2C (mixture of isomers)
17 | > 64 | 4 | – | C[C@H]1CC[C@]2(NC1)O[C@H]1C[C@H]3[C@@H]4CC[C@H]5CC(NC[C@@H](N)C(c6ccccc6)c6ccccc6)CC[C@]5(C)[C@H]4CC[C@]3(C)[C@H]1[C@@H]2C (mixture of isomers)
18 | > 128 | 16 | – | C[C@H]1CC[C@]2(NC1)O[C@H]1C[C@H]3[C@@H]4CC[C@H]5CC(NC[C@@H](N)Cc6cccnc6)CC[C@]5(C)[C@H]4CC[C@]3(C)[C@H]1[C@@H]2C (mixture of isomers)
19 | > 128 | 8 | – | C[C@H]1CC[C@]2(NC1)O[C@H]1C[C@H]3[C@@H]4CC[C@H]5CC(NCc6ccc(O)cc6)CC[C@]5(C)[C@H]4CC[C@]3(C)[C@H]1[C@@H]2C (mixture of isomers)
20 | 32 | 8 | – | C[C@H]1CC[C@]2(NC1)O[C@H]1C[C@H]3[C@@H]4CC[C@H]5CC(NC[C@@H](N)Cc6c[nH]cn6)CC[C@]5(C)[C@H]4CC[C@]3(C)[C@H]1[C@@H]2C (mixture of isomers)
21 | > 128 | 32 | – | C[C@H]1CC[C@]2(NC1)O[C@H]1C[C@H]3[C@@H]4CC[C@H]5CC(NCCNS(C)(=O)=O)CC[C@]5(C)[C@H]4CC[C@]3(C)[C@H]1[C@@H]2C (mixture of isomers)
22 | 8 | 5 | 2 | C[C@H]1CC[C@]2(NC1)O[C@H]1C[C@H]3[C@@H]4CC[C@H]5CC(NC[C@@H](N)Cc6cccc(C(F)(F)F)c6)CC[C@]5(C)[C@H]4CC[C@]3(C)[C@H]1[C@@H]2C (mixture of isomers)
23 | > 128 | > 128 | – | COC(=O)CNC1CC[C@@]2(C)[C@@H](CC[C@@H]3[C@@H]2CC[C@]2(C)[C@@H]4[C@H](C[C@@H]32)O[C@@]2(CC[C@H](C)CN2)[C@H]4C)C1 (mixture of isomers)
24 | 32 | 4 | – | C[C@H]1CC[C@]2(NC1)O[C@H]1C[C@H]3[C@@H]4CC[C@H]5CC(NC[C@H](N)CCc6ccccc6)CC[C@]5(C)[C@H]4CC[C@]3(C)[C@H]1[C@@H]2C (stereo partly specified)
25 | > 128 | 32 | – | C[C@H]1CC[C@]2(NC1)O[C@H]1C[C@H]3[C@@H]4CC[C@H]5CC(NCc6ccco6)CC[C@]5(C)[C@H]4CC[C@]3(C)[C@H]1[C@@H]2C (mixture of isomers)
